Experimental data taken from ChEMBL document CHEMBL1909582, “Identification of novel NK1/NK3 dual antagonists for the potential treatment of schizophrenia” (Bioorg Med Chem Lett, 2011).

Tests used:
Substance-P receptor [1] = target: T1, Substance-P receptor (Homo sapiens, UniProt P25103); assay: Antagonist activity at human recombinant NK1 receptor expressed in human U20S cells assessed as effect on substance P-induced intracellular calcium level by FLIPR assay; format: functional, cell-based, U2OS
Neuromedin-K receptor = target: T2, Neuromedin-K receptor (Homo sapiens, UniProt P29371); assay: Antagonist activity at human recombinant NK3 receptor expressed in human U20S cells assessed as effect on NKB-induced intracellular calcium level by FLIPR assay; format: functional, cell-based, U2OS
T2 sequence (P29371 whole entry): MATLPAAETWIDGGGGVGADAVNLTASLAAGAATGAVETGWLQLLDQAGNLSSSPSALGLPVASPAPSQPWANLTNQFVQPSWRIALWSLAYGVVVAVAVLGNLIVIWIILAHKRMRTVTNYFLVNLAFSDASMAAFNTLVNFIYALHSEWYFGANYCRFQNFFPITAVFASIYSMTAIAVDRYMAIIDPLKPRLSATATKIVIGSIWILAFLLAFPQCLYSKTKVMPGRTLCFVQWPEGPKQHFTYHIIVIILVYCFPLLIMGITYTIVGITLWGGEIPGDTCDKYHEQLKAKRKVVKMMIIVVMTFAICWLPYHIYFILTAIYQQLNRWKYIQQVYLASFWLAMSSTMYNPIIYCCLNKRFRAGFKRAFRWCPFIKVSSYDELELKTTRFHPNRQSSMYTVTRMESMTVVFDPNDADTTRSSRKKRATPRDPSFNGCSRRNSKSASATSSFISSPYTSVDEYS

Substance-P receptor [2] = target: T1, Substance-P receptor; assay: Antagonist activity at human recombinant NK1 receptor expressed in human U20S cells assessed as substance P maximal stimulation at 1 nM by FLIPR assay; format: functional, cell-based; settings: U2OS
Substance-P receptor [3] = target: T1, Substance-P receptor; assay: Antagonist activity at human recombinant NK1 receptor expressed in human U20S cells assessed as substance P maximal stimulation at 3 nM by FLIPR assay; format: functional, cell-based; settings: U2OS
[4] = target: T3, Neuromedin-K receptor (Homo sapiens) (UniProt P29371); assay: Antagonist activity at human recombinant NK3 receptor expressed in human U20S cells assessed as neurokinin B maximal stimulation at 30 nM by FLIPR assay; settings: U2OS
T3 sequence (whole entry): T2 sequence (P29371 whole entry)

[5] = target: T3, Neuromedin-K receptor (Homo sapiens); assay: Antagonist activity at human recombinant NK3 receptor expressed in human U20S cells assessed as neurokinin B maximal stimulation at 100 nM by FLIPR assay; settings: U2OS

T1 sequence (P25103 whole entry): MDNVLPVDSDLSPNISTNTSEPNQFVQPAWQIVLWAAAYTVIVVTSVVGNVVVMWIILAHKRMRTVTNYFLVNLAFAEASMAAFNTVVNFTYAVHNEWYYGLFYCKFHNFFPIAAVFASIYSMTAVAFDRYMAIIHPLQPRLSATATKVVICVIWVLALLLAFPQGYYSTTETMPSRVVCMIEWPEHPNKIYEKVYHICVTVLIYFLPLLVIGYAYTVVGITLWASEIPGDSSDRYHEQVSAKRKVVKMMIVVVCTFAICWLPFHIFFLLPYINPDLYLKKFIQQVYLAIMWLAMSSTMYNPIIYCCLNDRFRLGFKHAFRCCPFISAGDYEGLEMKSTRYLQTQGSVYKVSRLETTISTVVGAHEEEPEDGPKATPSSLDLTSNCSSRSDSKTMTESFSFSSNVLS

| Compound | Ki (Substance-P receptor [1]) | Ki (Neuromedin-K receptor) | Emax (Substance-P receptor [2]) | Emax (Substance-P receptor [3]) | Emax [4] | Emax [5] |
| --- | --- | --- | --- | --- | --- | --- |
| Cc1cc(F)ccc1-c1cc(C2CC(=O)NC2CO)ncc1N(C)C(=O)C(C)(C)c1cc(C(F)(F)F)cc(C(F)(F)F)c1 (single isomer, unassigned; 21a) | < 0.158 nM | 25.1 nM |  |  |  |  |
| Cc1cc(F)ccc1-c1cc(C2CC(=O)NC2CO)ncc1N(C)C(=O)C(C)(C)c1cc(C(F)(F)F)cc(C(F)(F)F)c1 (single isomer, unassigned; 22a) [listing 1 of 2 here] |  |  | 103% | 39% | 101% | 76% |
| Cc1cc(F)ccc1-c1cc(C2NC(=O)CC2CO)ncc1N(C)C(=O)C(C)(C)c1cc(C(F)(F)F)cc(C(F)(F)F)c1 (single isomer, unassigned; 9a) [listing 1 of 2 here] |  |  | 98% | 60% | 83% | 74% |
| Cc1cc(F)ccc1-c1cc(C2CNC(=O)C2CO)ncc1N(C)C(=O)C(C)(C)c1cc(C(F)(F)F)cc(C(F)(F)F)c1 (racemic) [listing 1 of 2 here] | 0.251 nM | 7.94 nM |  |  |  |  |
| Cc1cc(F)ccc1-c1cc(C2CNC(=O)C2CO)ncc1N(C)C(=O)C(C)(C)c1cc(C(F)(F)F)cc(C(F)(F)F)c1 (single isomer, unassigned; enantiomer 2) [listing 1 of 2 here] | 0.158 nM | 1.58 nM |  |  |  |  |
| Cc1cc(F)ccc1-c1cc(C2CC(=O)NC2(CO)CO)ncc1N(C)C(=O)C(C)(C)c1cc(C(F)(F)F)cc(C(F)(F)F)c1 (racemic) [listing 1 of 2 here] | 0.1 nM | 5.01 nM |  |  |  |  |
| Cc1cc(F)ccc1-c1cc(C2CNC(=O)C2CO)ncc1N(C)C(=O)C(C)(C)c1cc(C(F)(F)F)cc(C(F)(F)F)c1 (racemic) [listing 2 of 2 here] |  |  | 109% | 63% |  |  |
| Cc1cc(F)ccc1-c1cc(C2CC(=O)NC2(CO)CO)ncc1N(C)C(=O)C(C)(C)c1cc(C(F)(F)F)cc(C(F)(F)F)c1 (racemic) [listing 2 of 2 here] |  |  | 89% | 28% |  |  |
| Cc1cc(F)ccc1-c1cc(C2CC(=O)NC2CO)ncc1N(C)C(=O)C(C)(C)c1cc(C(F)(F)F)cc(C(F)(F)F)c1 (single isomer, unassigned; 21b) | < 0.158 nM | 794 nM |  |  |  |  |
| Cc1cc(F)ccc1-c1cc(C2CNC(=O)C2CO)ncc1N(C)C(=O)C(C)(C)c1cc(C(F)(F)F)cc(C(F)(F)F)c1 (single isomer, unassigned; enantiomer 1) [listing 1 of 2 here] | 0.0501 nM | 79.4 nM |  |  |  |  |
| Cc1cc(F)ccc1-c1cc(C2CNC(=O)C2CO)ncc1N(C)C(=O)C(C)(C)c1cc(C(F)(F)F)cc(C(F)(F)F)c1 (single isomer, unassigned; enantiomer 1) [listing 2 of 2 here] |  |  | 103% | 19% |  |  |
| Cc1cc(F)ccc1-c1cc(C2CNC(=O)C2CO)ncc1N(C)C(=O)C(C)(C)c1cc(C(F)(F)F)cc(C(F)(F)F)c1 (single isomer, unassigned; enantiomer 2) [listing 2 of 2 here] |  |  | 101% | 37% |  |  |
| Cc1cc(F)ccc1-c1cc(C2NC(=O)CC2CO)ncc1N(C)C(=O)C(C)(C)c1cc(C(F)(F)F)cc(C(F)(F)F)c1 (single isomer, unassigned; 9b) [listing 1 of 2 here] |  |  | 79% | 30% |  |  |
| Cc1cc(F)ccc1-c1cc(C2CC(=O)NC2(CO)CO)ncc1N(C)C(=O)C(C)(C)c1cc(C(F)(F)F)cc(C(F)(F)F)c1 (single isomer, unassigned; enantiomer 2) | < 0.158 nM | 631 nM |  |  |  |  |
| Cc1cc(F)ccc1-c1cc(C2CC(=O)NC2(CO)CO)ncc1N(C)C(=O)C(C)(C)c1cc(C(F)(F)F)cc(C(F)(F)F)c1 (single isomer, unassigned; enantiomer 1) | < 0.158 nM | 6.31 nM |  |  |  |  |
| Cc1cc(F)ccc1-c1cc(C2CN(C)C(=O)C2CO)ncc1N(C)C(=O)C(C)(C)c1cc(C(F)(F)F)cc(C(F)(F)F)c1 (single isomer, unassigned) | 0.0631 nM | 1 nM | 66% | 5% | 67% | 56% |
| Cc1cc(F)ccc1-c1cc(C2NC(=O)CC2CO)ncc1N(C)C(=O)C(C)(C)c1cc(C(F)(F)F)cc(C(F)(F)F)c1 (single isomer, unassigned; 9b) [listing 2 of 2 here] | 0.316 nM | 31.6 nM |  |  |  |  |
| Cc1cc(F)ccc1-c1cc(C2NC(=O)CC2CO)ncc1N(C)C(=O)C(C)(C)c1cc(C(F)(F)F)cc(C(F)(F)F)c1 (single isomer, unassigned; 8a) [listing 1 of 2 here] | 0.0794 nM | 39.8 nM |  |  |  |  |
| Cc1cc(F)ccc1-c1cc(C2NC(=O)CC2CO)ncc1N(C)C(=O)C(C)(C)c1cc(C(F)(F)F)cc(C(F)(F)F)c1 (single isomer, unassigned; 8a) [listing 2 of 2 here] |  |  | 64% | 25% |  |  |
| Cc1cc(F)ccc1-c1cc(C2NC(=O)CC2CO)ncc1N(C)C(=O)C(C)(C)c1cc(C(F)(F)F)cc(C(F)(F)F)c1 (single isomer, unassigned; 9a) [listing 2 of 2 here] | 0.251 nM | 5.01 nM |  |  |  |  |
| Cc1cc(F)ccc1-c1cc(C2CNC(=O)C2)ncc1N(C)C(=O)C(C)(C)c1cc(C(F)(F)F)cc(C(F)(F)F)c1 (stereo not drawn) | < 0.158 nM | 31.6 nM | 64% | 20% |  |  |
| Cc1cc(F)ccc1-c1cc(C2CC(=O)NC2CO)ncc1N(C)C(=O)C(C)(C)c1cc(C(F)(F)F)cc(C(F)(F)F)c1 (single isomer, unassigned; 22a) [listing 2 of 2 here] | 0.251 nM | 2 nM |  |  |  |  |
| Cc1cc(F)ccc1-c1cc(C2CC(=O)NC2CO)ncc1N(C)C(=O)C(C)(C)c1cc(C(F)(F)F)cc(C(F)(F)F)c1 (single isomer, unassigned; 22b) | 0.251 nM | 20 nM |  |  |  |  |
| Cc1cc(F)ccc1-c1cc(C2NC(=O)CC2CO)ncc1N(C)C(=O)C(C)(C)c1cc(C(F)(F)F)cc(C(F)(F)F)c1 (single isomer, unassigned; 8b) | 0.501 nM | 501 nM |  |  |  |  |
